Data from EPA's CvTdb concentration-time database.

Tests used:
Mouse = experiment: concentration in plasma after dosing; details: 2 h; dosed: 2-Hydroxy-4-methoxybenzophenone; 500 mg/kg; oral; Female; B6C3F1
Rat [1] = experiment: concentration in plasma after dosing; details: 4 h; dosed: 2-Hydroxy-4-methoxybenzophenone; 500 mg/kg; oral; Male; F344
Rat [2] = experiment: concentration in plasma after dosing; details: dosed: 2-Hydroxy-4-methoxybenzophenone, 100 mg/kg, oral, Male, F344
Rat [3] = experiment: concentration in plasma after dosing; details: 0.25 h; dosed: 2-Hydroxy-4-methoxybenzophenone; 500 mg/kg; oral; Female; F344
Rat [4] = experiment: concentration in brain after dosing; details: 5 min; dosed: alpha-Thujone; 25 mg/kg; oral; Male; Harlan Sprague Dawley
Rat [5] = experiment: concentration in brain after dosing; details: 2 min; dosed: alpha-Thujone; 25 mg/kg; oral; Female; Harlan Sprague Dawley
Rat [6] = experiment: concentration in plasma after dosing; details: 6 h; dosed: alpha-Thujone; 25 mg/kg; oral; Male; Harlan Sprague Dawley
Rat [7] = experiment: concentration in plasma after dosing; details: 6 h; dosed: alpha-Thujone; 25 mg/kg; oral; Male; Harlan Sprague Dawley; remark: listed apart in the source
Rat [8] = experiment: concentration in brain after dosing; details: 5 min; dosed: alpha-Thujone; 50 mg/kg; oral; Female; Harlan Sprague Dawley
Rat [9] = experiment: concentration in plasma after dosing; details: 12 h; dosed: alpha-Thujone; 25 mg/kg; oral; Male; Harlan Sprague Dawley
Rat [10] = experiment: concentration in plasma after dosing; details: 6 h; dosed: alpha-Thujone; 50 mg/kg; oral; Female; Harlan Sprague Dawley
Rat [11] = experiment: concentration in brain after dosing; details: 12 h; dosed: Perfluorohexane-1-sulphonic acid – potassium salt; 16 mg/kg; oral; Female; F344
Rat [12] = experiment: concentration in plasma after dosing; details: 1 h; dosed: Perfluorohexane-1-sulphonic acid – potassium salt; 16 mg/kg; oral; Male; F344
Rat [13] = experiment: concentration in brain after dosing; details: 24 h; dosed: Perfluorohexane-1-sulphonic acid – potassium salt; 16 mg/kg; oral; Female; Harlan Sprague Dawley
Rat [14] = experiment: concentration in liver after dosing; details: dosed: Perfluorohexane-1-sulphonic acid – potassium salt, 16 mg/kg, oral
Rat [15] = experiment: concentration in kidney after dosing; details: 12 h; dosed: Perfluorohexane-1-sulphonic acid – potassium salt; 16 mg/kg; oral; Female; F344
Rat [16] = experiment: concentration in brain after dosing; details: 12 h; dosed: Perfluorohexane-1-sulphonic acid – potassium salt; 16 mg/kg; oral; Female; Harlan Sprague Dawley
Rat [17] = experiment: concentration in plasma after dosing; details: dosed: Perfluorohexane-1-sulphonic acid – potassium salt, 4 mg/kg, oral, Male, F344
Rat [18] = experiment: concentration in brain after dosing; details: 48 h; dosed: Perfluorohexane-1-sulphonic acid – potassium salt; 16 mg/kg; oral; Female; Harlan Sprague Dawley
Rat [19] = experiment: concentration in brain after dosing; details: 12 h; dosed: Perfluorohexane-1-sulphonic acid – potassium salt; 16 mg/kg; oral; Female; Harlan Sprague Dawley; remark: listed apart in the source
Rat [20] = experiment: concentration in kidney after dosing; details: 6 h; dosed: Perfluorohexane-1-sulphonic acid – potassium salt; 16 mg/kg; oral; Female; Harlan Sprague Dawley
Rat [21] = experiment: concentration in liver after dosing; details: 12 h; dosed: Perfluorohexane-1-sulphonic acid – potassium salt; 16 mg/kg; oral; Female; F344
Rat [22] = experiment: concentration in brain after dosing; details: 24 h; dosed: Perfluorohexane-1-sulphonic acid – potassium salt; 16 mg/kg; oral; Female; Harlan Sprague Dawley; remark: listed apart in the source
Rat [23] = experiment: concentration in plasma after dosing; details: 2 h; dosed: Pyridine; 10 mg/kg; iv; Male; F344
Rat [24] = experiment: concentration in plasma after dosing; details: 20 min; dosed: Pyridine; 10 mg/kg; iv; Male; F344
Rat [25] = experiment: concentration in plasma after dosing; details: dosed: Pyridine, 25 mg/kg, oral, Male, F344
Rat [26] = experiment: concentration in plasma after dosing; details: dosed: Pyridine, 5 mg/kg, iv, Male, F344
Rat [27] = experiment: concentration in plasma after dosing; details: 5 min; dosed: Pyridine; 10 mg/kg; iv; Male; F344
Rat [28] = experiment: concentration in plasma after dosing; details: 20 min; dosed: Methyleugenol; 37 mg/kg; oral; Female; F344/N
Rat [29] = experiment: concentration in plasma after dosing; details: dosed: Methyleugenol, 37 mg/kg, oral, Male, F344/N
Rat [30] = experiment: concentration in plasma after dosing; details: dosed: Methyleugenol, 37 mg/kg, oral, Female, F344/N
Rat [31] = experiment: concentration in plasma after dosing; details: dosed: 2,4-Dichlorophenoxyacetic acid, 7.0 mg/kg, oral, Male, Sprague-Dawley
Rat [32] = experiment: concentration in plasma after dosing; details: 22 h; dosed: Primidone; 130 mg/kg; oral; Female; F344
Rat [33] = experiment: concentration in plasma after dosing; details: 9 h; dosed: Primidone; 130 mg/kg; oral; Female; F344
Rat [34] = experiment: concentration in plasma after dosing; details: 0.5 h; dosed: Primidone; 130 mg/kg; oral; Female; F344

Molecule O=C(c1ccccc1)c1ccc(O)cc1O [2,4-Dihydroxybenzophenone] has a concentration in plasma (Mouse) of 0.135 µg/mL, a concentration in plasma (Rat [1]) of 0.181 µg/mL and a concentration in plasma (Rat [2]; 0.5 h) of 0.142 µg/mL. The concentration in plasma (Rat [2]; 5 h) was 0.0656 µg/mL and the concentration in plasma (Rat [3]) was 0.781 µg/mL.

Work on CC(C)[C@]12CC(=O)[C@H](C)[C@H]1C2 [alpha-Thujone] yielded a concentration in brain (Rat [4]) of 360 ng/g, a concentration in brain (Rat [5]) of 36.5 ng/g and a concentration in plasma (Rat [6]) of 68.6 ng/mL. For the same molecule, the concentration in plasma (Rat [7]) was 267 ng/mL, the concentration in brain (Rat [8]) was 996 ng/g and the concentration in plasma (Rat [9]) was 20.5 ng/mL. For the same molecule, the concentration in plasma (Rat [10]) was 192 ng/mL.

O=S(=O)([O-])C(F)(F)C(F)(F)C(F)(F)C(F)(F)C(F)(F)C(F)(F)F.[K+] [Perfluorohexane-1-sulphonic acid – potassium salt] was tested, and the concentration in brain (Rat [11]) was 1520 ng/g, the concentration in plasma (Rat [12]) was 55.6 µg/mL and the concentration in brain (Rat [13]) was 743 ng/g. It also gave a concentration in liver (Rat [14]; 3 h, Female, F344) of 67800 ng/g, a concentration in liver (Rat [14]; 3 h, Female, Harlan Sprague Dawley) of 49500 ng/g and a concentration in liver (Rat [14]; 6 h, Female, F344) of 62400 ng/g. The concentration in liver (Rat [14]; 6 h, Female, Harlan Sprague Dawley) was 49000 ng/g, the concentration in liver (Rat [14]; 12 h, Female, F344) was 68600 ng/g and the concentration in liver (Rat [14]; 12 h, Female, Harlan Sprague Dawley) was 33300 ng/g. It also gave a concentration in liver (Rat [14]; 24 h, Female, F344) of 58000 ng/g, a concentration in liver (Rat [14]; 24 h, Female, Harlan Sprague Dawley) of 26100 ng/g and a concentration in liver (Rat [14]; 48 h, Female, Harlan Sprague Dawley) of 14000 ng/g. The concentration in liver (Rat [14]; 96 h, Female, Harlan Sprague Dawley) was 6030 ng/g, the concentration in liver (Rat [14]; 192 h, Female, F344) was 47000 ng/g and the concentration in liver (Rat [14]; 192 h, Female, Harlan Sprague Dawley) was 1460 ng/g. For the same molecule, the concentration in liver (Rat [14]; 528 h, Female, F344) was 27600 ng/g, the concentration in liver (Rat [14]; 1200 h, Male, Harlan Sprague Dawley) was 14800 ng/g and the concentration in kidney (Rat [15]) was 35900 ng/g. For the same molecule, the concentration in brain (Rat [16]) was 1190 ng/g, the concentration in plasma (Rat [17]; 3 h) was 28000 ng/mL and the concentration in plasma (Rat [17]; 24 h) was 31600 ng/mL. For the same molecule, the concentration in plasma (Rat [17]; 1200 h) was 3240 ng/mL, the concentration in brain (Rat [18]) was 496 ng/g and the concentration in brain (Rat [19]) was 1140 ng/g. For the same molecule, the concentration in kidney (Rat [20]) was 36900 ng/g, the concentration in liver (Rat [21]) was 75600 ng/g and the concentration in brain (Rat [22]) was 701 ng/g.

For c1ccncc1 [Pyridine], the concentration in plasma (Rat [23]) was 0.32 µg/mL, the concentration in plasma (Rat [24]) was 4.02 µg/mL and the concentration in plasma (Rat [25]; 5 min) was 4.22 µg/mL. The concentration in plasma (Rat [25]; 4 h) was 15.5 µg/mL, the concentration in plasma (Rat [26]; 0.25 h) was 3.73 µg/mL and the concentration in plasma (Rat [26]; 6 h) was 1.3 µg/mL. It also gave a concentration in plasma (Rat [27]) of 2.51 µg/mL.

Molecule C=CCc1ccc(OC)c(OC)c1 [Methyleugenol] has a concentration in plasma (Rat [28]) of 0.374 µg/mL, a concentration in plasma (Rat [29]; 10 min) of 0.176 µg/mL and a concentration in plasma (Rat [29]; 6 h) of 0.0111 µg/mL. It also gave a concentration in plasma (Rat [30]; 5 min) of 0.173 µg/mL and a concentration in plasma (Rat [30]; 4 h) of 0.00995 µg/mL.

In the case of O=C(O)COc1ccc(Cl)cc1Cl [2,4-Dichlorophenoxyacetic acid], the concentration in plasma (Rat [31]; 2.5 min) was 7.17 µg/mL, the concentration in plasma (Rat [31]; 10 min) was 14.7 µg/mL and the concentration in plasma (Rat [31]; 0.25 h) was 8.07 µg/mL. For the same molecule, the concentration in plasma (Rat [31]; 0.5 h) was 14.5 µg/mL, the concentration in plasma (Rat [31]; 2 h) was 4.09 µg/mL and the concentration in plasma (Rat [31]; 3 h) was 3.18 µg/mL. It also gave a concentration in plasma (Rat [31]; 4 h) of 3.72 µg/mL, a concentration in plasma (Rat [31]; 5 h) of 4.48 µg/mL and a concentration in plasma (Rat [31]; 6 h) of 1.89 µg/mL.

CCC1(c2ccccc2)C(=O)NCNC1=O [Primidone] gave a concentration in plasma (Rat [32]) of 1.7 µg/mL, a concentration in plasma (Rat [33]) of 52.5 µg/mL and a concentration in plasma (Rat [34]) of 18.8 µg/mL.
